Reference: patent publication US11613546B2, “Substituted pyridotriazine compounds and uses thereof” (Gilead Sciences, Inc., priority 2021, dated 2023)
Like-named read-outs stand apart in the source and are kept apart here.

How the values were obtained:
HIV-1 (IIIB) = test: Antiviral assay in MT-4 cells; format: cell-based; settings: HIV-1 IIIB infected MT-4 cells, 5 days, Cell Titer Glo, read-out: MT4 EC50
In short: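 MT-4 cells infected with a 1:250 dilution of HIV-1 IIIB stock were incubated with serially diluted (1:3) compound for 5 days at 37 °C. Viability read by Cell Titer Glo luminescence; EC50 is the concentration giving 50% decrease in signal, from sigmoidal dose-response fits.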

[1] = Cytotoxicity assay in MT-4 cells; format: cell-based; settings: human, uninfected MT-4 cells, 5 days, Cell Titer Glo; read-out: CC50
In short: (§1)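 Uninfected MT-4 cells were incubated with 1:3 serially diluted compound in RPMI/10% FBS for 5 days at 37° C. Viability was read by CellTiter-Glo luminescence, with 10 μM puromycin as the baseline cytotoxicity control. Values are the concentration giving a 50% decrease in luminescence, from sigmoidal dose-response fits.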

pLai RLuc reporter virus = test: HIV MT-4 serum shift antiviral reporter assay; format: cell-based
In short: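 MT-4 cells pre-infected with pLai RLuc virus for 2 h at 37 °C, then incubated 72 h at 37 °C with compound in medium (RPMI, 10% FBS) with or without 50% human serum; Renilla luminescence read. EC50 from sigmoidal fit; serum shift = EC50(HS/CCM)/EC50(CCM).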

[2] = Monkey PK after single-dose intravenous infusion; format: in vivo, monkeys; settings: for half-life: cynomolgus, monkeys, single-dose intravenous infusion for 30 minutes, plasma, read-out: Cyno half-life (converted)
Method: Test compound PK was determined in monkeys (Labcorp, Madison, Wis.) following a single-dose intravenous infusion for 30 minutes. The dosing vehicle was 10% N-methylpyrrolidone; 50% polyethylene glycol 300 and 40% water (pH 8.3) for intravenous administration in monkeys. Serial blood samples were collected at predose, 0.25, 0.48 (before end of infusion), 0.58, 0.75, 1, 1.5, 2, 4, 8, 12, 24, 48, 72, 96, 120, 144, and 168 hours postdose (based on start of infusion) and plasma test compound concentrations were quantified using an LC-MS/MS method.
Nonclinical plasma samples were prepared by addition of 200 μl cold acetonitrile/internal standard solution to 96-well plates containing 50 μl aliquots of each plasma sample. After protein precipitation, each of the supernatants (50 μl) were transferred to clean 96-well plates and diluted with 450 μl of water. The sample injection volume was 2 μl. Samples were analyzed by a multiple reaction monitoring LC-MS/MS method. LC-MS system consisted of a Cohesive LX-2 multiplex with two identical DIONEX UltiMate 3000 RS pumps, Hypersil Gold C18 HPLC column (50×2.1 mm, […]; Thermo Fisher Scientific), and the ABSciex QTRAP5500 Mass Spectrometer LC-MS/MS system. Chromatography was performed using 0.1% formic acid and 1% isopropyl alcohol in aqueous solution (MP A), and 0.1% formic acid and 1% isopropyl alcohol in acetonitrile (MP B).
Plasma PK parameters for test compounds in monkeys were estimated via noncompartmental analysis using the software program Phoenix WinNonlin, version 6.3 (Pharsight Corporation, Mountain View, Calif.). The following plasma PK parameters were estimated in nonclinical species (as appropriate): observed peak plasma concentration (Cmax), time to reach Cmax (Tmax), last quantifiable plasma concentration (Clast), tin, time of Clast (Tlast), area under the plasma concentration-time curve (AUC) from time 0 to Clast (AUClast), AUC from time 0 to infinity (AUCinf), CL, mean residence time (MRT), and volume of distribution at steady state (Vss).

MT-4 cells = test: Cytotoxicity assay in MT-4 cells; format: cell-based
In short: as §1

[3] = Human immunodeficiency virus 1, IIIB, MT4, 120 h
[4] = Human immunodeficiency virus 1, 72 h, read-out: RLUC 50% HS (nM), HS/CCM: 50% human serum, 72 h, Renilla Glo
[5] = Human immunodeficiency virus 1, 72 h, read-out: RLUC CCM (nM), cell culture media (RPMI, 10% FBS), 72 h, Renilla Glo

SMILES	EC50 (HIV-1 (IIIB); [3]) [nM]	CC50 at 5 days [1] [nM]	EC50 (pLai RLuc reporter virus; [4]) [nM]	EC50 (pLai RLuc reporter virus; [5]) [nM]	half-life [2] [h]	EC50 (HIV-1 (IIIB)) [nM]	CC50 (MT-4 cells) [nM]	EC50 (pLai RLuc reporter virus; HS/CCM: 50% human serum, 72 h, Renilla Glo, read-out: RLUC 50% HS) [nM]	EC50 (pLai RLuc reporter virus; cell culture media (RPMI, 10% FBS), 72 h, Renilla Glo, read-out: RLUC CCM) [nM]	Cyno half-life ([2]; in vivo, iv) [h]	EC50 (pLai RLuc reporter virus; read-out: RLUC 50% HS, HS/CCM: 50% human serum, 72 h, Renilla Glo) [nM]
C[C@H]1C=C[C@H](C)N2CN1C(=O)c1c(O)c(=O)c(C(=O)NCc3ccc(F)cc3F)cn12 [Example C30, (1S,2S,5S)-8-hydroxy-2,5-dimethyl-7,9-dioxo-N-(2,4-difluorobenzyl)-2,5,7,9-tetrahydro-1,6-methanopyrido[1,2-b][1,2,5]triazonine-10-carboxamide]	1.3	35800	29	0.32	6	–	–	–	–	–	–
O=C(NCc1c(F)cc(F)cc1F)c1cn2c(c(O)c1=O)C(=O)N1CCCCN2C1 [Example C109, (1S)-8-hydroxy-7,9-dioxo-N-(2,4,6-trifluorobenzyl)-2,3,4,5,7,9-hexahydro-1,6-methanopyrido[1,2-b][1,2,5]triazonine-10-carboxamide]	–	–	–	–	–	1.2	15200	11.4	0.62	4.7	–
C[C@@H]1CC[C@H](C)N2CN1n1cc(C(=O)NCc3ccc(F)cc3F)c(=O)c(O)c1C2=O [Example C37, (1S,2R,5S)—N-(2,4-difluorobenzyl)-8-hydroxy-2,5-dimethyl-7,9-dioxo-2,3,4,5,7,9-hexahydro-1,6-methanopyrido[1,2-b][1,2,5]triazonine-10-carboxamide]	1.3	8570	325	0.87	22	–	–	–	–	–	–
C[C@H]1CC[C@H](C)N2CN1C(=O)c1c(O)c(=O)c(C(=O)NCc3c(F)cc(F)cc3F)cn12 [Example C27, (1S,2R,5S)-8-hydroxy-2,5-dimethyl-7,9-dioxo-N-(2,4,6-trifluorobenzyl)-2,3,4,5,7,9-hexahydro-1,6-methanopyrido[1,2-b][1,2,5]triazonine-10-carboxamide]	1.3	9550	–	0.55	48	–	–	–	–	–	594
